Data from US5969132.
Where two headings read alike, the source gives them in different places.

Conditions: amide bond, NaHCO3, CH2Cl2, 72.0 h, 2 steps

Row | SMILES | ring closure, yield of all isomers (from CC(C)[C@H](COCc1ccccc1)NC(=O)C(F)(F)C(O)[C@H](Cc1ccc(OCC(=O)Oc2c(F)c(F)c(F)c(F)c2F)cc1)NC(=O)[C@@H](NC(=O)CNC(=O)OC(C)(C)C)C(C)C, 1.69 mM) [%] | ring closure, yield of all isomers (from CC(C)[C@H](NC(=O)CNC(=O)OC(C)(C)C)C(=O)N[C@@H](Cc1ccc(OCC(=O)Oc2c(F)c(F)c(F)c(F)c2F)cc1)C(O)C(F)(F)C(=O)NCc1ccccc1) [%]
1 | CC(C)[C@H](COCc1ccccc1)NC(=O)C(F)(F)[C@H](O)[C@@H]1Cc2ccc(cc2)OCC(=O)NCC(=O)N[C@@H](C(C)C)C(=O)N1 | 8 | 
2 | CC(C)[C@@H]1NC(=O)CNC(=O)COc2ccc(cc2)C[C@@H](C(O)C(F)(F)C(=O)NCc2ccccc2)NC1=O (some centres unmarked) |  | 78.7
